Molecular target: T1, human MRGPR X4 (Homo sapiens, UniProt Q96LA9)
T1 construct: expressed in transfected cells
Assay: MRGPR X4 antagonist activity, IP-One Gq HTRF assay in stably transfected HEK cells
Assay type: cell-based
Conditions: not given
How it was run: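 Human MRGPR X4-expressing HEK cells, 20,000/well, were incubated with compound (10-point curve, 10 uM top, 1:3 dilutions) plus agonist (10 μM bilirubin, 20 μM deoxycholic acid or 100 μM conjugated bilirubin) in Tris/NaCl/LiCl buffer, pH 8, for 1 h at 37 °C, then 30 min at room temperature. IP-1 was read by HTRF, and IC50 was taken from the HTRF ratio.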

T1 sequence (Q96LA9 whole entry): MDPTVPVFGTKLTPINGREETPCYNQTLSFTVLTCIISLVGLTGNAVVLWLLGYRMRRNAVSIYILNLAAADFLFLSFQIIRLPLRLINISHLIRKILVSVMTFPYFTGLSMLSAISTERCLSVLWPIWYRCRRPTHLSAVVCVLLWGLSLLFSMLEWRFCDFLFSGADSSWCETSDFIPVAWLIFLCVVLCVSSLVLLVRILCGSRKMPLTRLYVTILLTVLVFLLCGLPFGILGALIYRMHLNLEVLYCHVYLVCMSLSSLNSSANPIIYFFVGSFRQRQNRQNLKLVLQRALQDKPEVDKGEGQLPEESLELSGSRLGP

`N#Cc1ccc(Cn2cc(C(=O)NCCc3cccnc3)c3ccccc32)cc1` [Compound 193] and `O=C(NCCc1cccnc1)c1cn(Cc2cccc(Cl)c2)c2ccccc12` [Compound 195] fall in the same range of IC50: 501 to 1000 nM for the first, 501 to 1000 nM for the second.

Compared with `O=C(NCCc1ccccc1OC(F)(F)F)c1cn(Cc2ccc(Cl)cc2)c2ccccc12` [Compound 194], `O=C(NCCc1cccc(OC(F)(F)F)c1)c1cn(Cc2ccc(Cl)cc2)c2ccccc12` [Compound 200] is higher in IC50: 501 to 1000 nM for the first, 1000 to 2500 nM for the second. The first is the more potent here.

`Cc1ccc(Cn2cc(C(=O)NCCc3ccc(Cl)c(F)c3)c3ccccc32)cc1` [Compound 196] and `O=C(NCCc1ccc(Cl)c(F)c1)c1cn(Cc2ccc(F)cc2)c2ccccc12` [Compound 198] fall in the same range of IC50: 501 to 1000 nM for the first, 501 to 1000 nM for the second.

Compared with `O=C(NCCc1ccc(C(F)(F)F)nc1)c1cn(Cc2ccc(Cl)cc2)c2ccccc12` [Compound 197], `O=C(NCCc1ccc(C(F)(F)F)cc1)c1cn(Cc2ccc(Cl)cc2)c2ccccc12` [Compound 208] is higher in IC50: 501 to 1000 nM for the first, 1000 to 2500 nM for the second.

First: O=C(NCCc1cccc(F)c1)c1cn(Cc2cccc(F)c2)c2ccccc12 [Compound 199]
Second: O=C(NCCc1ccc(F)cc1)c1cn(Cc2cccc(F)c2)c2ccccc12 [Compound 236]
The IC50 of the first is lower: 501 to 1000 nM for the first, over 2500 nM for the second.

`Cc1cccc(Cn2cc(C(=O)NCCc3cccnc3)c3ccccc32)c1` [Compound 201] and `COc1cccc(Cn2cc(C(=O)NCCc3cccnc3)c3ccccc32)c1` [Compound 211] fall in the same range of IC50: 1000 to 2500 nM for the first, 1000 to 2500 nM for the second.

`Cc1ccc(CCNC(=O)c2cn(Cc3cccc(F)c3)c3ccccc23)cn1` [Compound 202] and `COc1ccc(CCNC(=O)c2cn(Cc3cccc(F)c3)c3ccccc23)cn1` [Compound 216] fall in the same range of IC50: 1000 to 2500 nM for the first, 1000 to 2500 nM for the second.

`COc1ncccc1CCNC(=O)c1cn(Cc2cccc(F)c2)c2ccccc12` [Compound 203] and `Cc1ncccc1CCNC(=O)c1cn(Cc2cccc(F)c2)c2ccccc12` [Compound 212] fall in the same range of IC50: 1000 to 2500 nM for the first, 1000 to 2500 nM for the second.

`O=C(NCCCc1ccc(Cl)c(F)c1)c1cn(Cc2ccc(Cl)cc2)c2ccccc12` [Compound 204] and `O=C(NCCc1ccc(Cl)c(F)c1)c1cn(Cc2ccc(Cl)cc2)c2ccccc12` [Compound 205] fall in the same range of IC50: 1000 to 2500 nM for the first, 1000 to 2500 nM for the second.

`O=C(NCCc1cccc(C(F)(F)F)c1)c1cn(Cc2ccc(Cl)cc2)c2ccccc12` [Compound 206] and `O=C(NCCc1ccc(Cl)c(F)c1)c1cn(Cc2ccc(C(F)(F)F)cc2)c2ccccc12` [Compound 209] fall in the same range of IC50: 1000 to 2500 nM for the first, 1000 to 2500 nM for the second.

`Cc1cnc(CCNC(=O)c2cn(Cc3ccc(Cl)cc3)c3ccccc23)nc1` [Compound 207] and `O=C(NCCc1cncnc1)c1cn(Cc2ccc(Cl)cc2)c2ccccc12` [Compound 215] fall in the same range of IC50: 1000 to 2500 nM for the first, 1000 to 2500 nM for the second.

`O=C(NCCc1ccc(Cl)c(F)c1)c1cn(Cc2cccc(F)c2)c2ccccc12` [Compound 210] and `Cc1cccc(Cn2cc(C(=O)NCCc3ccc(Cl)c(F)c3)c3ccccc32)c1` [Compound 222] fall in the same range of IC50: 1000 to 2500 nM for the first, 1000 to 2500 nM for the second.

First: CC(C)(CNC(=O)c1cn(Cc2cccc(F)c2)c2ccccc12)c1cccnc1 [Compound 213]
Second: CC(C)(CNC(=O)c1cn(Cc2ccc(Cl)cc2)c2ccccc12)c1cccnc1 [Compound 233]
The IC50 of the first is lower: 1000 to 2500 nM for the first, over 2500 nM for the second.

First: O=C(NCCc1ccccn1)c1cn(Cc2cccc(F)c2)c2ccccc12 [Compound 214]
Second: O=C(NCCc1ccccn1)c1cn(Cc2ccccc2)c2ccccc12 [Compound 234]
The IC50 of the first is lower: 1000 to 2500 nM for the first, over 2500 nM for the second. The first is the more potent here.

First: COc1ccc(Cn2cc(C(=O)NCCc3ccc(Cl)c(F)c3)c3ccccc32)cc1 [Compound 218]
Second: O=C(NCCc1ccc(Cl)c(F)c1)c1cn(Cc2ccccc2F)c2ccccc12 [Compound 224]
The IC50 of the first is lower: 1000 to 2500 nM for the first, over 2500 nM for the second.

`O=C(NCCc1ccncc1)c1cn(Cc2cccc(F)c2)c2ccccc12` [Compound 219] and `COc1ccccc1CCNC(=O)c1cn(Cc2cccc(F)c2)c2ccccc12` [Compound 221] fall in the same range of IC50: 1000 to 2500 nM for the first, 1000 to 2500 nM for the second.

First: O=C(NCCc1ccc(=O)[nH]c1)c1cn(Cc2ccc(Cl)cc2)c2ccccc12 [Compound 220]
Second: N#Cc1ccccc1Cn1cc(C(=O)NCCc2ccc(Cl)c(F)c2)c2ccccc21 [Compound 235]
The IC50 of the first is lower: 1000 to 2500 nM for the first, over 2500 nM for the second.

First: O=C(NCCc1ccc(Cl)c(F)c1)c1cn(CCN2CCC(F)(F)CC2)c2ccccc12 [Compound 223]
Second: COC1CN(CCn2cc(C(=O)NCCc3ccccn3)c3ccccc32)C1 [Compound 228]
The IC50 of the first is lower: 1000 to 2500 nM for the first, over 2500 nM for the second.

`Cc1ccccc1Cn1cc(C(=O)NCCc2cccnc2)c2ccccc21` [Compound 225] and `COc1ccccc1Cn1cc(C(=O)NCCc2cccnc2)c2ccccc21` [Compound 226] cannot be ordered by IC50: over 2500 nM for the first, over 2500 nM for the second.

`Cc1c(C(=O)NCCc2cccnc2)c2ccccc2n1Cc1ccc(Cl)cc1` [Compound 227] and `CC(=O)c1cccc(Cn2cc(C(=O)NCCc3cccnc3)c3ccccc32)c1` [Compound 232] cannot be ordered by IC50: over 2500 nM for the first, over 2500 nM for the second.

`Cc1ccc(Cn2cc(C(=O)NCc3ccccn3)c3ccccc32)cc1` [Compound 229] and `Cc1ccc(Cn2cc(C(=O)NCc3ccncc3)c3ccccc32)cc1` [Compound 231] cannot be ordered by IC50: over 2500 nM for the first, over 2500 nM for the second.

Compared with `Cc1ccccc1S(=O)(=O)NC(=O)c1nn(Cc2ccc(OC(F)F)cc2)c2ccccc12` [Compound 258], `Cc1cccc(S(=O)(=O)NC(=O)c2nn(Cc3ccc(OC(F)F)cc3)c3ccccc23)c1` [Compound 270] is higher in IC50: 100 to 500 nM for the first, 1000 to 2500 nM for the second.

`O=C(NS(=O)(=O)c1ccc(Cl)cc1Cl)c1nn(Cc2cccc(F)c2)c2ccccc12` [Compound 261] and `O=C(NS(=O)(=O)c1ccc(F)cc1)c1nn(Cc2ccc(OC(F)F)cc2)c2ccccc12` [Compound 266] fall in the same range of IC50: 501 to 1000 nM for the first, 501 to 1000 nM for the second.

Same assay, conditions: versus 20 μM deoxycholic acid agonist; HEK cells expressing human MRGPR X4; read-out: MRGPRX4 Antagonist Activity

First: O=C(NCCc1ccccn1)c1cn(CCc2ccc(Cl)cc2)c2ccccc12 [Compound 217]
Second: O=C(NCC1(c2cccnc2)CC1)c1cn(Cc2ccc(Cl)cc2)c2ccccc12 [Compound 230]
The IC50 of the first is lower: 1000 to 2500 nM for the first, over 2500 nM for the second.

First: O=C(CS(=O)(=O)c1cn(Cc2ccc(Cl)cc2)c2ccccc12)Nc1ccccc1F [Compound 237, 2-((1-(4-chlorobenzyl)-1H-indol-3-yl)sulfonyl)-N-(2-fluorophenyl)acetamide]
Second: O=C(CS(=O)(=O)c1cn(Cc2ccc(Cl)cc2)c2ccccc12)Nc1ccccc1Cl [Compound 244]
The IC50 of the first is lower: 100 to 500 nM for the first, 501 to 1000 nM for the second.

First: COc1cccc(NC(=O)CS(=O)(=O)c2cn(Cc3ccc(Cl)cc3)c3ccccc23)c1 [Compound 238]
Second: Cc1cccc(NC(=O)CS(=O)(=O)c2cn(Cc3ccc(Cl)cc3)c3ccccc23)c1 [Compound 243]
The IC50 of the first is lower: 100 to 500 nM for the first, 501 to 1000 nM for the second.

Compared with `O=C(CS(=O)(=O)c1cn(Cc2ccc(Cl)cc2)c2ccccc12)Nc1cccnc1` [Compound 239], `O=C(CS(=O)(=O)c1cn(Cc2ccc(Cl)cc2)c2ccccc12)Nc1ccccc1` [Compound 242] is higher in IC50: 100 to 500 nM for the first, 501 to 1000 nM for the second. The first is the more potent here.

First: O=C(CS(=O)(=O)c1cn(Cc2ccc(Cl)cc2)c2ccccc12)Nc1cccc(F)c1 [Compound 240]
Second: O=C(CS(=O)(=O)c1cn(Cc2ccc(Cl)cc2)c2ccccc12)Nc1cccc(Cl)c1 [Compound 253]
The IC50 of the first is lower: 100 to 500 nM for the first, 1000 to 2500 nM for the second. The first is the more potent here.

First: O=C(CS(=O)(=O)c1cn(Cc2ccc(Cl)cc2)c2ccccc12)Nc1ccccn1 [Compound 241]
Second: Cc1ccccc1NC(=O)CS(=O)(=O)c1cn(Cc2ccc(Cl)cc2)c2ccccc12 [Compound 255]
The IC50 of the first is lower: 100 to 500 nM for the first, over 2500 nM for the second.

Compared with `O=C(CS(=O)(=O)c1cn(Cc2ccc(Cl)cc2)c2ccccc12)Nc1ccc(F)cc1` [Compound 245], `Cc1ccc(NC(=O)CS(=O)(=O)c2cn(Cc3ccc(Cl)cc3)c3ccccc23)cc1` [Compound 247] is higher in IC50: 501 to 1000 nM for the first, 1000 to 2500 nM for the second. The first is the more potent here.

`COc1ccccc1NC(=O)CS(=O)(=O)c1cn(Cc2ccc(Cl)cc2)c2ccccc12` [Compound 246] and `O=C(CS(=O)(=O)c1cn(Cc2ccc(Cl)cc2)c2ccccc12)Nc1ccc(Cl)cc1Cl` [Compound 251] fall in the same range of IC50: 1000 to 2500 nM for the first, 1000 to 2500 nM for the second.

`CC(C)NC(=O)CS(=O)(=O)c1cn(Cc2ccc(Cl)cc2)c2ccccc12` [Compound 248] and `CNC(=O)CS(=O)(=O)c1cn(Cc2ccc(Cl)cc2)c2ccccc12` [Compound 250] fall in the same range of IC50: 1000 to 2500 nM for the first, 1000 to 2500 nM for the second.

First: O=C(CS(=O)(=O)c1cn(Cc2ccc(Cl)cc2)c2ccccc12)Nc1ccc(Cl)c(Cl)c1 [Compound 249]
Second: O=C(CS(=O)(=O)c1cn(Cc2ccc(Cl)cc2)c2ccccc12)Nc1ccc(Cl)cc1 [Compound 256]
The IC50 of the first is lower: 1000 to 2500 nM for the first, over 2500 nM for the second. The first is the more potent here.

First: CN(C)C(=O)CS(=O)(=O)c1cn(Cc2ccc(Cl)cc2)c2ccccc12 [Compound 252]
Second: Cc1ccc(CS(=O)(=O)NC(=O)c2nn(Cc3ccc(Cl)cc3)c3ccccc23)cc1 [Compound 264]
The IC50 of the first is higher: 1000 to 2500 nM for the first, 501 to 1000 nM for the second. The second is the more potent here.

First: Cc1cccc(NC(=O)CS(=O)(=O)c2cn(CCN3CCC(F)(F)C3)c3ccccc23)c1 [Compound 254]
Second: COc1ccc(C)c(S(=O)(=O)NC(=O)c2nn(Cc3cccc(F)c3)c3ccccc23)c1 [Compound 257]
The IC50 of the first is lower: 1000 to 2500 nM for the first, over 2500 nM for the second.

First: Cc1cc(S(=O)(=O)NC(=O)c2nn(Cc3ccc(OC(F)F)cc3)c3ccccc23)ccc1C#N [Compound 259]
Second: O=C(NS(=O)(=O)c1cccc(F)c1)c1nn(Cc2ccc(OC(F)F)cc2)c2ccccc12 [Compound 267]
The IC50 of the first is lower: 100 to 500 nM for the first, 501 to 1000 nM for the second.

`Cc1cccc(S(=O)(=O)NC(=O)c2nn(Cc3ccccc3C#N)c3ccccc23)c1` [Compound 260] and `Cc1cc(S(=O)(=O)NC(=O)c2nn(Cc3ccc(C(F)(F)F)cc3Cl)c3ccccc23)ccc1C#N` [Compound 263] fall in the same range of IC50: 501 to 1000 nM for the first, 501 to 1000 nM for the second.

Compared with `O=C(NS(=O)(=O)c1ccccc1C(F)(F)F)c1nn(Cc2ccc(OC(F)F)cc2)c2ccccc12` [Compound 262], `O=C(NS(=O)(=O)c1ccccc1F)c1nn(Cc2ccc(OC(F)F)cc2)c2ccccc12` [Compound 269] is higher in IC50: 501 to 1000 nM for the first, 1000 to 2500 nM for the second.

`O=C(NS(=O)(=O)c1cccc(C(F)(F)F)c1)c1nn(Cc2ccc(OC(F)F)cc2)c2ccccc12` [Compound 265] and `Cc1cc(C)cc(S(=O)(=O)NC(=O)c2nn(Cc3ccc(OC(F)F)cc3)c3ccccc23)c1` [Compound 268] fall in the same range of IC50: 501 to 1000 nM for the first, 501 to 1000 nM for the second.
